ChEMBL document CHEMBL1152775, “Effect of 3,4-ethylenedioxy-extension of thiophene core on the DNA/RNA binding properties and biological activity of bisbenzimidazole amidines” (Bioorg Med Chem, 2009)
Active and inactive are the calls of the source. The calls are words filed in the database; no cut-off is given here.

What was measured:
Calf thymus DNA [1] = assay: Binding affinity to calf thymus double stranded DNA minor groove at drug to DNA ratio of 0 to 0.2 by CD spectroscopy; assay type: nucleic-acid assay; conditions: Bos taurus
MCF7 [2] = assay: Antiproliferative activity against human MCF7 cells at 0.1 to 100 uM after 72 hrs by MTT assay; assay type: functional, cell-based
[3] = Binding affinity to poly A-poly U double stranded RNA by CD spectroscopy
Nucleic Acid [4] = assay: Binding affinity to poly A-poly U double stranded RNA assessed as change in melting temperature at […] of 0.2 by thermal denaturation study; assay type: nucleic-acid assay
Calf thymus DNA [5] = assay: Binding affinity to calf thymus double stranded DNA assessed as change in melting temperature at drug to DNA ratio of 0.1 by thermal denaturation study; assay type: nucleic-acid assay; conditions: Bos taurus
Nucleic Acid [6] = assay: Binding affinity to poly A-poly U double stranded RNA assessed as change in melting temperature at […] of 0.3 by thermal denaturation study; assay type: nucleic-acid assay
Nucleic Acid [7] = assay: Binding affinity to poly A-poly U double stranded RNA assessed as change in melting temperature at […] of 0.1 by thermal denaturation study; assay type: nucleic-acid assay
Calf thymus DNA [8] = assay: Binding affinity to calf thymus double stranded DNA assessed as change in melting temperature at drug to DNA ratio of 0.2 by thermal denaturation study; assay type: nucleic-acid assay; conditions: Bos taurus
Calf thymus DNA [9] = assay: Binding affinity to calf thymus double stranded DNA by UV visible spectroscopy; assay type: nucleic-acid assay; conditions: Bos taurus
[10] = Binding affinity to poly A-poly U double stranded RNA by UV visible spectroscopy
Calf thymus DNA [11] = assay: Binding affinity to calf thymus double stranded DNA assessed as change in melting temperature at drug to DNA ratio of 0.3 by thermal denaturation study; assay type: nucleic-acid assay; conditions: Bos taurus
Bos taurus = species on record: Bos taurus; assay: Ratio of IC50 of ethidium bromide to IC50 of drug for calf thymus DNA by ethidium bromide displacement assay
Calf thymus DNA [12] = assay: Binding affinity to calf thymus double stranded DNA assessed as change in melting temperature at drug to DNA ratio of 0.05 by thermal denaturation study; assay type: nucleic-acid assay; conditions: Bos taurus
HeLa [13] = assay: Cell cycle distribution in human HeLa cells assessed as accumulation at S phase at 1 uM after 48 hrs by propidium iodide-based flow cytometry; assay type: functional
HeLa [14] = assay: Cell cycle distribution in human HeLa cells assessed as accumulation at G0/G1 phase at 1 uM after 72 hrs by propidium iodide-based flow cytometry; assay type: functional
Trypanosoma cruzi [15] = assay: Antitrypanosomal activity against Trypanosoma cruzi clone 14 epimastigotes on day 5; assay type: functional, organism-based; conditions: 120 h
MIA PaCa-2 = assay: Antiproliferative activity against human MIAPaCa2 cells at 0.1 to 100 uM after 72 hrs by MTT assay; assay type: functional, cell-based
Caco-2 = assay: Antiproliferative activity against human Caco-2 cells at 0.1 to 100 uM after 72 hrs by MTT assay; assay type: functional, cell-based
HeLa [16] = assay: Cell cycle distribution in human HeLa cells assessed as accumulation at G2/M phase at 1 uM after 48 hrs by propidium iodide-based flow cytometry; assay type: functional
HEp-2 [17] = assay: Antiproliferative activity against human Hep2 cells at 0.1 to 100 uM after 72 hrs by MTT assay; assay type: functional, cell-based
HeLa [18] = assay: Cell cycle distribution in human HeLa cells assessed as accumulation at G2/M phase at 1 uM after 72 hrs by propidium iodide-based flow cytometry; assay type: functional
HT-29 = assay: Antiproliferative activity against human HT-29 cells at 0.1 to 100 uM after 72 hrs by MTT assay; assay type: functional, cell-based
HeLa [19] = assay: Antiproliferative activity against human HeLa cells at 0.1 to 100 uM after 72 hrs by MTT assay; assay type: functional, cell-based
HeLa [20] = assay: Cell cycle distribution in human HeLa cells assessed as accumulation at S phase at 1 uM after 72 hrs by propidium iodide-based flow cytometry; assay type: functional
Trypanosoma cruzi [21] = assay: Antitrypanosomal activity against Trypanosoma cruzi clone 14 epimastigotes after 8 days; assay type: functional, organism-based; conditions: 192 h
HeLa [22] = assay: Cell cycle distribution in human HeLa cells assessed as accumulation at G2/M phase at 1 uM after 24 hrs by propidium iodide-based flow cytometry; assay type: functional
HEp-2 [23] = assay: Antiproliferative activity against human Hep2 cells at 1 uM after 72 hrs by MTT assay relative to control; assay type: functional; conditions: HEp-2, 72 h
AGS = assay: Antiproliferative activity against human AGS cells at 0.1 to 100 uM after 72 hrs by MTT assay; assay type: functional, cell-based
HeLa [24] = assay: Cell cycle distribution in human HeLa cells assessed as accumulation at G0/G1 phase at 1 uM after 48 hrs by propidium iodide-based flow cytometry; assay type: functional
HeLa [25] = assay: Antiproliferative activity against human HeLa cells at 1 uM after 72 hrs by MTT assay relative to control; assay type: functional
MCF7 [26] = assay: Antiproliferative activity against human MCF7 cells at 0.1 uM after 72 hrs by MTT assay relative to control; assay type: functional; conditions: MCF7, 72 h
NCI-H358 = assay: Antiproliferative activity against human NCI-H358 cells at 0.1 to 100 uM after 72 hrs by MTT assay; assay type: functional, cell-based
HeLa [27] = assay: Cell cycle distribution in human HeLa cells assessed as accumulation at S phase at 10 uM after 72 hrs by propidium iodide-based flow cytometry; assay type: functional
HeLa [28] = assay: Cell cycle distribution in human HeLa cells assessed as accumulation at S phase at 10 uM after 48 hrs by propidium iodide-based flow cytometry; assay type: functional
HeLa [29] = assay: Cell cycle distribution in human HeLa cells assessed as accumulation at G2/M phase at 10 uM after 48 hrs by propidium iodide-based flow cytometry; assay type: functional
HeLa [30] = assay: Cell cycle distribution in human HeLa cells assessed as accumulation at G2/M phase at 10 uM after 72 hrs by propidium iodide-based flow cytometry; assay type: functional
HeLa [31] = assay: Cell cycle distribution in human HeLa cells assessed as accumulation at G0/G1 phase at 10 uM after 72 hrs by propidium iodide-based flow cytometry; assay type: functional
HeLa [32] = assay: Cell cycle distribution in human HeLa cells assessed as accumulation at G2/M phase at 10 uM after 24 hrs by propidium iodide-based flow cytometry; assay type: functional
HeLa [33] = assay: Cell cycle distribution in human HeLa cells assessed as accumulation at G0/G1 phase at 10 uM after 48 hrs by propidium iodide-based flow cytometry; assay type: functional

SMILES	Activity (Calf thymus DNA [1])	Activity (MCF7 [2])	Activity [3]	ΔTm (Nucleic Acid [4]) [°C]	ΔTm (Calf thymus DNA [5]) [°C]	ΔTm (Nucleic Acid [6]) [°C]	ΔTm (Nucleic Acid [7]) [°C]	ΔTm (Calf thymus DNA [8]) [°C]	Activity (Calf thymus DNA [9])	Activity [10]	ΔTm (Calf thymus DNA [11]) [°C]	Ratio IC50 (Bos taurus)	ΔTm (Calf thymus DNA [12]) [°C]	other results
c1cc2nc(-c3sc(-c4nc5ccc(C6=NCCN6)cc5[nH]4)c4c3OCCO4)[nH]c2cc1C1=NCCN1	Active	Active	Active	0.3	11.9	-0.2	0.4	11.4	Active	Active	12.3	0.38	12.2	
CC(C)NC(=N)c1ccc2nc(-c3sc(-c4nc5ccc(C(=N)NC(C)C)cc5[nH]4)c4c3OCCO4)[nH]c2c1.Cl.Cl	Active	Active	Active	0.8	> 15.4		0.9	> 15.4	Active	Active		0.38	11.7	Activity (HeLa [13]): 22.4%; Activity (HeLa [14]): 30.7%; IC50 (Trypanosoma cruzi [15]): 4.25 µM; Activity (MIA PaCa-2): Active; Activity (Caco-2): Active; Activity (HeLa [16]): 35%; Activity (HEp-2 [17]): Active; Activity (HeLa [18]): 15.2%; Activity (HT-29): Active; Activity (HeLa [19]): Active; Activity (HeLa [20]): 49.8%; IC50 (Trypanosoma cruzi [21]): 2.4 µM; Activity (HeLa [22]): Active; inhibition at 1 µM (HEp-2 [23]): 80%; Activity (AGS): Active; Activity (HeLa [24]): 46.9%; inhibition at 1 µM (HeLa [25]): 40%; inhibition at 0.1 µM (MCF7 [26]): 40%; Activity (NCI-H358): Active
CN1CCN(c2ccc3[nH]c(-c4ccc5[nH]c(-c6ccc(O)cc6)nc5c4)nc3c2)CC1 [HOECHST 33258]		Active												Activity (HeLa [27]): 46.3%; Activity (HeLa [28]): 23.4%; Activity (HeLa [29]): 23.9%; Activity (HeLa [30]): 29.9%; Activity (HeLa [31]): 43.1%; Activity (HeLa [32]): inactive; Activity (HeLa [33]): 33.6%
N=C(N)c1ccc2nc(-c3sc(-c4nc5ccc(C(=N)N)cc5[nH]4)c4c3OCCO4)[nH]c2c1	Active	Active	Active	-0.3	14.4	-0.9		13.9	Active	Active	12.9	0.48	12.7	
